{"source": "ChEMBL document CHEMBL1155215", "about": "“Green chemoselective synthesis of thiazolo[3,2-a]pyridine derivatives and evaluation of their antioxidant and cytotoxic activities” (Bioorg Med Chem Lett, 2009)", "key": {"[1]": {"tested_on": "Radical scavenging activity", "test": "Antioxidant activity assessed as DPPH free radical scavenging activity at 1 mg assessed per mg", "format": "functional"}, "[2]": {"test": "Antioxidant activity assessed as hydroxyl free radical scavenging activity at 1 mg assessed per mg", "format": "functional"}, "[3]": {"tested_on": "HCT-116", "test": "Cytotoxicity against human HCT116 cells assessed as inhibition of cell proliferation at 1 mg/ml after 48 hrs by MTT assay", "format": "functional", "conditions": "HCT-116, 48 h"}, "[4]": {"test": "Cytotoxicity against C57BL/6 mouse spleen lymphocytes assessed as inhibition of cell proliferation at 1 mg/ml after 48 hrs by MTT assay", "format": "tissue-based, Lymphocyte"}}, "data": [{"molecule": "N#CC1=C(N)n2c(s/c(=C\\c3ccc(Br)cc3)c2=O)=C(C#N)C1c1ccc(Br)cc1", "note": "(centres undefined)", "values": [{"measurement": "inhibition", "setting": "[1]", "result": 108, "unit": "%"}, {"measurement": "inhibition", "setting": "[2]", "result": 125, "unit": "%"}, {"measurement": "inhibition at 1000 µg/mL", "setting": "[3]", "result": 56.6, "unit": "%"}, {"measurement": "inhibition at 48 h, 1 mg/ml", "setting": "[4]", "result": 71.3, "unit": "%"}]}, {"molecule": "N#CC1=C(N)n2c(s/c(=C\\c3cccs3)c2=O)=C(C#N)C1c1cccs1", "note": "(centres undefined)", "values": [{"measurement": "inhibition at 1000 µg/mL", "setting": "[3]", "result": 63.8, "unit": "%"}, {"measurement": "inhibition at 48 h, 1 mg/ml", "setting": "[4]", "result": 55.4, "unit": "%"}]}, {"molecule": "Cc1ccc(C2C(C#N)=C(N)N3C(=O)CSC3=C2C#N)cc1", "note": "(centres undefined)", "values": [{"measurement": "inhibition at 1000 µg/mL", "setting": "[3]", "result": 47.4, "unit": "%"}, {"measurement": "inhibition at 48 h, 1 mg/ml", "setting": "[4]", "result": 63.8, "unit": "%"}]}, {"molecule": "N#CC1=C(N)N2C(=O)CSC2=C(C#N)C1c1ccc2c(c1)OCO2", "note": "(centres undefined)", "values": [{"measurement": "inhibition at 1000 µg/mL", "setting": "[3]", "result": 51.8, "unit": "%"}, {"measurement": "inhibition at 48 h, 1 mg/ml", "setting": "[4]", "result": 62, "unit": "%"}]}, {"molecule": "N#CC1=C(N)n2c(s/c(=C\\c3cccc([N+](=O)[O-])c3)c2=O)=C(C#N)C1c1cccc([N+](=O)[O-])c1", "note": "(centres undefined)", "values": [{"measurement": "inhibition", "setting": "[1]", "result": 45.9, "unit": "%"}, {"measurement": "inhibition", "setting": "[2]", "result": 56.8, "unit": "%"}, {"measurement": "inhibition at 1000 µg/mL", "setting": "[3]", "result": 53, "unit": "%"}, {"measurement": "inhibition at 48 h, 1 mg/ml", "setting": "[4]", "result": 60.4, "unit": "%"}]}, {"molecule": "N#CC1=C(N)n2c(s/c(=C\\c3ccc(O)c([N+](=O)[O-])c3)c2=O)=C(C#N)C1c1ccc(O)c([N+](=O)[O-])c1", "note": "(centres undefined)", "values": [{"measurement": "inhibition", "setting": "[1]", "result": 109, "unit": "%"}, {"measurement": "inhibition at 1000 µg/mL", "setting": "[3]", "result": 41.2, "unit": "%"}, {"measurement": "inhibition at 48 h, 1 mg/ml", "setting": "[4]", "result": 5.31, "unit": "%"}]}, {"molecule": "N#CC1=C(N)N2C(=O)CSC2=C(C#N)C1c1ccc(F)cc1", "note": "(centres undefined)", "values": [{"measurement": "inhibition at 1000 µg/mL", "setting": "[3]", "result": 47.8, "unit": "%"}, {"measurement": "inhibition at 48 h, 1 mg/ml", "setting": "[4]", "result": 66.9, "unit": "%"}]}, {"molecule": "N#CC1=C(N)N2C(=O)CSC2=C(C#N)C1c1ccccc1", "note": "(centres undefined)", "values": [{"measurement": "inhibition at 1000 µg/mL", "setting": "[3]", "result": 50.8, "unit": "%"}, {"measurement": "inhibition at 48 h, 1 mg/ml", "setting": "[4]", "result": 64.8, "unit": "%"}]}, {"molecule": "N#CC1=C(N)N2C(=O)CSC2=C(C#N)C1c1ccc(Cl)cc1Cl", "note": "(centres undefined)", "values": [{"measurement": "inhibition at 1000 µg/mL", "setting": "[3]", "result": 29.9, "unit": "%"}, {"measurement": "inhibition at 48 h, 1 mg/ml", "setting": "[4]", "result": 55.4, "unit": "%"}]}, {"molecule": "N#CC1=C(N)n2c(s/c(=C\\c3ccc([N+](=O)[O-])cc3)c2=O)=C(C#N)C1c1ccc([N+](=O)[O-])cc1", "note": "(centres undefined)", "values": [{"measurement": "inhibition at 1000 µg/mL", "setting": "[3]", "result": 35.5, "unit": "%"}, {"measurement": "inhibition at 48 h, 1 mg/ml", "setting": "[4]", "result": 51.7, "unit": "%"}]}, {"molecule": "N#CC1=C(N)N2C(=O)CSC2=C(C#N)C1c1ccccc1Cl", "note": "(centres undefined)", "values": [{"measurement": "inhibition at 1000 µg/mL", "setting": "[3]", "result": 54.1, "unit": "%"}, {"measurement": "inhibition at 48 h, 1 mg/ml", "setting": "[4]", "result": 60.4, "unit": "%"}]}, {"molecule": "O=C1O[C@H]([C@@H](O)CO)C(O)=C1O", "values": [{"measurement": "inhibition", "setting": "[2]", "result": 109, "unit": "%"}]}, {"molecule": "N#CC1=C(N)N2C(=O)CSC2=C(C#N)C1c1ccc(Br)cc1", "note": "(centres undefined)", "values": [{"measurement": "inhibition", "setting": "[1]", "result": 67.7, "unit": "%"}, {"measurement": "inhibition at 1000 µg/mL", "setting": "[3]", "result": 43.5, "unit": "%"}, {"measurement": "inhibition at 48 h, 1 mg/ml", "setting": "[4]", "result": 69.6, "unit": "%"}]}, {"molecule": "COc1ccc(C2C(C#N)=C(N)N3C(=O)CSC3=C2C#N)cc1", "note": "(centres undefined)", "values": [{"measurement": "inhibition", "setting": "[1]", "result": 140, "unit": "%"}, {"measurement": "inhibition at 1000 µg/mL", "setting": "[3]", "result": 50.2, "unit": "%"}, {"measurement": "inhibition at 48 h, 1 mg/ml", "setting": "[4]", "result": 70.6, "unit": "%"}]}]}
